Laboratory results published in ChEMBL document CHEMBL5576038, “Design of a novel long-acting dual GLP-1/GIP receptor agonist” (Bioorg Med Chem, 2024).
pEC50: −log10 of the molar value. The source made the active and inactive calls. The calls are words filed in the database; no cut-off is given here. Where a SMILES comes first, the peptide text is derived from it. [ ]: non-standard residue; d: D form. The star is where a group is joined. X1 = N[C@@H](CCCCNC(=O)CC[C@H](NC(=O)CCCCCCCCCCCCCCCCCCC(=O)O)C(=O)O)C(=O)NCCCC[C@H](N)C(=O)N[C@@H](CCCCNC(=O)C*)C(=O)O; Aib = CC(C)(N)C(=O)O

How the values were obtained:
[1] = tested on: Mus musculus; assay: Hypoglycemic effect in male db/db mouse model assessed as reduction in body weight at 30 nmol/kg, sc administered every 3 days for 60 days and measured every 3 days; type: functional, organism-based; details: time 60.0 day
[2] = molecular target: T1, Gastric inhibitory polypeptide receptor (Homo sapiens, UniProt P48546); assay: Agonist activity at human GIPR expressed in CHO cells assessed as increase in cAMP production incubated for 30 mins by Eu-cAMP tracer based microplate reader analysis; type: functional, cell-based
T1 sequence (P48546 whole entry): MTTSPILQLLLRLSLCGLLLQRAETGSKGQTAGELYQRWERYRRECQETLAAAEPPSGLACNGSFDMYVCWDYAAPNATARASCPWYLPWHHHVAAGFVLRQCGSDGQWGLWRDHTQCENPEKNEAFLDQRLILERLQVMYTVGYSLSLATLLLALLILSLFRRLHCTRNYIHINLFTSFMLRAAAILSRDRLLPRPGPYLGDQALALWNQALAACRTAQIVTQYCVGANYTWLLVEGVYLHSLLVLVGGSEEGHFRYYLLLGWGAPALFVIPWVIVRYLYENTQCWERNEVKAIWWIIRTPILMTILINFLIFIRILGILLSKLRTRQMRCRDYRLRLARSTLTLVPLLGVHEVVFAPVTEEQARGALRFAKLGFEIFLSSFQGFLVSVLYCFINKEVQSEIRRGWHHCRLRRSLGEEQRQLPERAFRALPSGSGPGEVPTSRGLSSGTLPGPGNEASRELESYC

[3] = Elimination half life in Beagle dog at 10 nmol/kg, sc administered as single dose and measured upto 168 hrs by LC-MS/MS analysis; type: ADME, organism-based, Canis lupus familiaris; details: Beagle, in vivo, read-out: beta t1/2 (converted)
[4] = tested on: Mus musculus; assay: Glucose-lowering effect in male ICR mouse assessed as reduction in plasma glucose AUC (0 to 72 hrs) at 30 nmol/kg, sc pretreated for 71 hrs followed by […] administration and measured after 60 mins by oral glucose tolerance test; type: functional, organism-based
[5] = Cmax in Beagle dog at 10 nmol/kg, sc administered as single dose and measured upto 168 hrs by LC-MS/MS analysis; type: ADME, organism-based, Canis lupus familiaris; details: Beagle, in vivo, read-out: Cmax
[6] = molecular target: Glucagon-like peptide 1 receptor (Homo sapiens, UniProt P43220); assay: Agonist activity at human GLP-1R expressed in CHO cells assessed as increase in cAMP production incubated for 30 mins by Eu-cAMP tracer based microplate reader analysis; type: functional, cell-based
Glucagon-like peptide 1 receptor, sequence (P43220 whole entry): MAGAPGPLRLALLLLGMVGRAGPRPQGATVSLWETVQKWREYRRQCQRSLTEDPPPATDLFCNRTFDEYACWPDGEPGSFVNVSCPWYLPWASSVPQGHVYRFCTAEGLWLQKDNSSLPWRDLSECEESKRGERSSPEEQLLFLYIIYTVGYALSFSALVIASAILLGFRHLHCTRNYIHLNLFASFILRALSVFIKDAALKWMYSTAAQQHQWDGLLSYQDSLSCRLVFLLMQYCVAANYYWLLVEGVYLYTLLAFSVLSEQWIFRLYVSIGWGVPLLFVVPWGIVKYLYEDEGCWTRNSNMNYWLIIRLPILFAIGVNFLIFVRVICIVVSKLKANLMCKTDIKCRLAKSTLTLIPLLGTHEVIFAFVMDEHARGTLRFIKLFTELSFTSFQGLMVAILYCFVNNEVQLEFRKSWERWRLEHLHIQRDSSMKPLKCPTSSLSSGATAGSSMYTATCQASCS

[7] = tested on: Mus musculus; assay: Hypoglycemic effect in male db/db mouse model assessed as blood glucose level at 30 nmol/kg, sc administered every 3 days for 31 days and measured 72 hrs post each dose; type: functional, organism-based; details: time 31.0 day
[8] = AUC (0 to 168 hrs) in Beagle dog at 10 nmol/kg, sc administered as single dose and measured upto 168 hrs by LC-MS/MS analysis; type: ADME, organism-based, Canis lupus familiaris; details: Beagle, in vivo
[9] = Tmax in Beagle dog at 10 nmol/kg, sc administered as single dose and measured upto 168 hrs by LC-MS/MS analysis; type: ADME, organism-based, Canis lupus familiaris; details: Beagle, in vivo, read-out: Tmax
[10] = tested on: Mus musculus; assay: Hypoglycemic effect in male db/db mouse model assessed as reduction in food intake at 30 nmol/kg, sc administered every 3 days for 60 days and measured every 3 days; type: functional, organism-based; details: time 60.0 day
[11] = tested on: Mus musculus; assay: Reduction in body weight in male ICR mouse at 30 nmol/kg, sc measured for 4 days; type: functional, organism-based; details: time 4.0 day
[12] = tested on: Mus musculus; assay: Anti-obesity activity in male C57/B16 mouse model of diet-induced obesity assessed as reduction in body weight at 10 nmol/kg, sc administered every 3 days for 46 days and measured every 3 days relative to control; type: functional; parameters: scale not given: the % may be the effect or the level left; details: time 46 day
[13] = tested on: Mus musculus; assay: Hypoglycemic effect in male db/db mouse model assessed as reduction in HbA1c level at 30 nmol/kg, sc administered every 3 days for 60 days and measured on day 18, 31, 37, 52, 58 and 60 by auto-chemistry analyzer; type: functional, organism-based; details: time 60.0 day

In the case of `CC(C)C[C@H](NC(=O)[C@H](CC(C)C)NC(=O)[C@H](Cc1c[nH]c2ccccc12)NC(=O)[C@H](CCC(N)=O)NC(=O)[C@@H](NC(=O)[C@H](Cc1ccccc1)NC(=O)[C@H](CC(C)C)NC(=O)[C@H](CSCC(=O)NCCCC[C@H](NC(=O)[C@@H](N)CCCCNC(=O)[C@@H](N)CCCCNC(=O)CC[C@H](NC(=O)CCCCCCCCCCCCCCCCCCC(=O)O)C(=O)O)C(=O)O)NC(=O)[C@H](C)NC(=O)[C@H](C)NC(=O)[C@H](CCC(N)=O)NC(=O)[C@H](CCCCN)NC(=O)[C@H](CCC(=O)O)NC(=O)[C@H](CC(C)C)NC(=O)[C@H](Cc1ccc(O)cc1)NC(=O)[C@H](Cc1ccc(O)cc1)NC(=O)[C@H](CO)NC(=O)[C@H](Cc1ccc(O)cc1)NC(=O)[C@H](CC(=O)O)NC(=O)[C@H](CO)NC(=O)[C@@H](NC(=O)[C@H](Cc1ccccc1)NC(=O)[C@@H](NC(=O)CNC(=O)[C@H](CCC(=O)O)NC(=O)C(C)(C)NC(=O)[C@@H](N)Cc1ccc(O)cc1)[C@@H](C)O)[C@@H](C)O)C(C)C)C(=O)N[C@@H](C)C(=O)NCC(=O)NCC(=O)N1CCC[C@H]1C(=O)N[C@@H](CO)C(=O)N[C@@H](CO)C(=O)NCC(=O)N[C@@H](C)C(=O)N1CCC[C@H]1C(=O)N1CCC[C@H]1C(=O)N1CCC[C@H]1C(=O)N[C@@H](CO)C(N)=O` (H-Y[Aib]EGTFTSDYSYYLEKQAAC(X1)LFVQWLLAGGPSSGAPPPS-NH2), the Activity [1] was “Active”, the pEC50 [2] was 10.22 and the half-life [3] was 78.3 h. For the same compound, the Activity [4] was “Active”, the Cmax [5] was 215 ng/mL and the pEC50 [6] was 9.74. The Activity [7] was “Active”, the AUC(0-t) at 168 h [8] was 23700 ng·h/mL and the Tmax [9] was 18.7 h. The Activity [10] was “Active”, the Activity [11] was “Active” and the Activity [12] was 21%. The Activity [13] was “Active”.
